“Also recorded” adds a separate entry of the source.
Test system: ASS1^KO B16F10 cells
Format: cell-based, murine

NC(=NCCCC(N)C(=O)O)NC(CC(=O)O)C(=O)O (centres unmarked) [argininosuccinate]
rescue of MYXV replication by supplement: support myxoma virus replication; also recorded: remained rescuable

NC(=O)NCCC[C@H](N)C(=O)O [citrulline, L-Citrulline]
rescue of MYXV replication by supplement: not able to divide or support myxoma virus replication; also recorded: could no longer be rescued
